# Test system: syngenic and metallothionein-SSAT mice
# Test: Hepatic, pancreatic and renal polyamine concentration in syngenic and metallothionein-SSAT mice after analogue
# Assay type: in vivo, mouse
# Conditions: 24 h before sacrifice
# Description: α-methylspermidine, Bis-α-methylspermine and α-methylspermine were administered in saline. […] The data are expressed as means ±S.D. For statistical analysis, the two-tailed Student's t test was used.
# [1] = Tg (transgenic) mice, 12.5 mg/kg
# [2] = Tg (transgenic) mice, 37.5 mg/kg
smiles,measurement,setting,value
"CC(N)CCNCCCCNCCCN (stereo not drawn) [α-methylspermine, 1-methylspermine]","pancreatic polyamine concentration, Spermine","Sg (syngenic) mice, 50 mg/kg",811.45 pmoles/mg tissue wet weight
same,"renal concentration, α-Methylspermine","Sg (syngenic) mice, 50 mg/kg",263.69 ± 49.92 pmoles/mg tissue wet weight
same,"renal polyamine concentration, N^1-Acetylspermidine","Sg (syngenic) mice, 50 mg/kg",48.23 pmoles/mg tissue wet weight
same,"renal polyamine concentration, N^8-Acetylspermidine","Sg (syngenic) mice, 50 mg/kg",21.09 pmoles/mg tissue wet weight
same,"renal polyamine concentration, Putrescine","Sg (syngenic) mice, 50 mg/kg",160.04 pmoles/mg tissue wet weight
same,"renal polyamine concentration, Spermidine","Sg (syngenic) mice, 50 mg/kg",193.19 pmoles/mg tissue wet weight
same,"renal polyamine concentration, Spermine","Sg (syngenic) mice, 50 mg/kg",258.42 pmoles/mg tissue wet weight
same,"hepatic concentration, α-Methylspermine",[1],138.89 pmoles/mg tissue wet weight
same,"hepatic polyamine concentration, N^1-Acetylspermidine",[1],242.81 pmoles/mg tissue wet weight
same,"hepatic polyamine concentration, Putrescine",[1],857.28 pmoles/mg tissue wet weight
same,"hepatic polyamine concentration, Spermidine",[1],717.42 pmoles/mg tissue wet weight
same,"hepatic polyamine concentration, Spermine",[1],62.74 pmoles/mg tissue wet weight
same,"pancreatic concentration, α-Methylspermine",[1],132.85 ± 26.34 pmoles/mg tissue wet weight
same,"pancreatic polyamine concentration, N^1-Acetylspermidine",[1],154.67 pmoles/mg tissue wet weight
same,"pancreatic polyamine concentration, Putrescine",[1],5691.31 pmoles/mg tissue wet weight
same,"pancreatic polyamine concentration, Spermidine",[1],2304.42 pmoles/mg tissue wet weight
same,"pancreatic polyamine concentration, Spermine",[1],42.35 pmoles/mg tissue wet weight
same,"renal concentration, α-Methylspermine",[1],198.34 ± 10.11 pmoles/mg tissue wet weight
same,"renal polyamine concentration, N^1-Acetylspermidine",[1],38.55 pmoles/mg tissue wet weight
same,"renal polyamine concentration, N^8-Acetylspermidine",[1],24.62 pmoles/mg tissue wet weight
same,"renal polyamine concentration, Putrescine",[1],58.16 pmoles/mg tissue wet weight
same,"renal polyamine concentration, Spermidine",[1],247.60 pmoles/mg tissue wet weight
same,"renal polyamine concentration, Spermine",[1],208.03 pmoles/mg tissue wet weight
same,"hepatic concentration, α-Methylspermidine","Tg (transgenic) mice, 25 mg/kg",197.89 ± 47.51 pmoles/mg tissue wet weight
same,"hepatic concentration, α-Methylspermine","Tg (transgenic) mice, 25 mg/kg",145.99 pmoles/mg tissue wet weight
same,"hepatic polyamine concentration, N^1-Acetylspermidine","Tg (transgenic) mice, 25 mg/kg",317.98 pmoles/mg tissue wet weight
same,"hepatic polyamine concentration, N^8-Acetylspermidine","Tg (transgenic) mice, 25 mg/kg",36.49 pmoles/mg tissue wet weight
same,"hepatic polyamine concentration, Putrescine","Tg (transgenic) mice, 25 mg/kg",872.47 pmoles/mg tissue wet weight
same,"hepatic polyamine concentration, Spermidine","Tg (transgenic) mice, 25 mg/kg",349.61 pmoles/mg tissue wet weight
same,"hepatic polyamine concentration, Spermine","Tg (transgenic) mice, 25 mg/kg",49.71 pmoles/mg tissue wet weight
same,"pancreatic concentration, α-Methylspermine","Tg (transgenic) mice, 25 mg/kg",130.62 ± 33.84 pmoles/mg tissue wet weight
same,"pancreatic polyamine concentration, N^1-Acetylspermidine","Tg (transgenic) mice, 25 mg/kg",327.88 pmoles/mg tissue wet weight
same,"pancreatic polyamine concentration, Putrescine","Tg (transgenic) mice, 25 mg/kg",5798.24 pmoles/mg tissue wet weight
same,"pancreatic polyamine concentration, Spermidine","Tg (transgenic) mice, 25 mg/kg",2449.50 pmoles/mg tissue wet weight
same,"pancreatic polyamine concentration, Spermine","Tg (transgenic) mice, 25 mg/kg",37.63 pmoles/mg tissue wet weight
same,"renal concentration, α-Methylspermine","Tg (transgenic) mice, 25 mg/kg",227.76 ± 11.79 pmoles/mg tissue wet weight
same,"renal polyamine concentration, N^1-Acetylspermidine","Tg (transgenic) mice, 25 mg/kg",42.95 pmoles/mg tissue wet weight
same,"renal polyamine concentration, N^8-Acetylspermidine","Tg (transgenic) mice, 25 mg/kg",25.16 pmoles/mg tissue wet weight
same,"renal polyamine concentration, Putrescine","Tg (transgenic) mice, 25 mg/kg",68.39 pmoles/mg tissue wet weight
same,"renal polyamine concentration, Spermidine","Tg (transgenic) mice, 25 mg/kg",156.66 pmoles/mg tissue wet weight
same,"renal polyamine concentration, Spermine","Tg (transgenic) mice, 25 mg/kg",209.57 pmoles/mg tissue wet weight
same,"hepatic concentration, α-Methylspermidine",[2],274.07 ± 18.43 pmoles/mg tissue wet weight
same,"hepatic concentration, α-Methylspermine",[2],203.75 pmoles/mg tissue wet weight
same,"hepatic polyamine concentration, N^1-Acetylspermidine",[2],180.48 pmoles/mg tissue wet weight
same,"hepatic polyamine concentration, N^8-Acetylspermidine",[2],14.15 pmoles/mg tissue wet weight
same,"hepatic polyamine concentration, Putrescine",[2],774.33 pmoles/mg tissue wet weight
same,"hepatic polyamine concentration, Spermidine",[2],305.70 pmoles/mg tissue wet weight
same,"hepatic polyamine concentration, Spermine",[2],47.47 pmoles/mg tissue wet weight
same,"pancreatic concentration, α-Methylspermine",[2],105.85 ± 91.76 pmoles/mg tissue wet weight
same,"pancreatic polyamine concentration, N^1-Acetylspermidine",[2],176.49 pmoles/mg tissue wet weight
same,"pancreatic polyamine concentration, Putrescine",[2],7426.10 pmoles/mg tissue wet weight
same,"pancreatic polyamine concentration, Spermidine",[2],2106.09 pmoles/mg tissue wet weight
same,"pancreatic polyamine concentration, Spermine",[2],51.89 pmoles/mg tissue wet weight
same,"renal concentration, α-Methylspermine",[2],224.06 ± 27.10 pmoles/mg tissue wet weight
same,"renal polyamine concentration, N^1-Acetylspermidine",[2],32.33 pmoles/mg tissue wet weight
same,"renal polyamine concentration, N^8-Acetylspermidine",[2],24.59 pmoles/mg tissue wet weight
same,"renal polyamine concentration, Putrescine",[2],95.60 pmoles/mg tissue wet weight
same,"renal polyamine concentration, Spermidine",[2],233.85 pmoles/mg tissue wet weight
same,"renal polyamine concentration, Spermine",[2],158.91 pmoles/mg tissue wet weight
same,"hepatic concentration, α-Methylspermidine","Tg (transgenic) mice, 50 mg/kg",255.30 ± 60.90 pmoles/mg tissue wet weight
same,"hepatic concentration, α-Methylspermine","Tg (transgenic) mice, 50 mg/kg",168.36 pmoles/mg tissue wet weight
same,"hepatic polyamine concentration, N^1-Acetylspermidine","Tg (transgenic) mice, 50 mg/kg",265.90 pmoles/mg tissue wet weight
same,"hepatic polyamine concentration, Putrescine","Tg (transgenic) mice, 50 mg/kg",1057.25 pmoles/mg tissue wet weight
same,"hepatic polyamine concentration, Spermidine","Tg (transgenic) mice, 50 mg/kg",196.67 pmoles/mg tissue wet weight
same,"hepatic polyamine concentration, Spermine","Tg (transgenic) mice, 50 mg/kg",38.02 pmoles/mg tissue wet weight
same,"pancreatic concentration, α-Methylspermine","Tg (transgenic) mice, 50 mg/kg",185.90 ± 20.82 pmoles/mg tissue wet weight
same,"pancreatic polyamine concentration, N^1-Acetylspermidine","Tg (transgenic) mice, 50 mg/kg",284.83 pmoles/mg tissue wet weight
same,"pancreatic polyamine concentration, Putrescine","Tg (transgenic) mice, 50 mg/kg",9027.03 pmoles/mg tissue wet weight
same,"pancreatic polyamine concentration, Spermidine","Tg (transgenic) mice, 50 mg/kg",3570.11 pmoles/mg tissue wet weight
same,"pancreatic polyamine concentration, Spermine","Tg (transgenic) mice, 50 mg/kg",70.53 pmoles/mg tissue wet weight
same,"renal concentration, α-Methylspermine","Tg (transgenic) mice, 50 mg/kg",319.33 ± 19.28 pmoles/mg tissue wet weight
same,"renal polyamine concentration, N^1-Acetylspermidine","Tg (transgenic) mice, 50 mg/kg",44.20 pmoles/mg tissue wet weight
same,"renal polyamine concentration, N^8-Acetylspermidine","Tg (transgenic) mice, 50 mg/kg",24.48 pmoles/mg tissue wet weight
same,"renal polyamine concentration, Putrescine","Tg (transgenic) mice, 50 mg/kg",91.94 pmoles/mg tissue wet weight
same,"renal polyamine concentration, Spermidine","Tg (transgenic) mice, 50 mg/kg",155.85 pmoles/mg tissue wet weight
same,"renal polyamine concentration, Spermine","Tg (transgenic) mice, 50 mg/kg",205.04 pmoles/mg tissue wet weight

# — patent US7202280B2, “Methods for the treatment and prevention of pancreatitis and for induction of liver regeneration” (priority 2002, dated 2007)
